Measured values taken from patent US10988477B2 (Merck Patent GmbH, priority 2018, dated 2021).

Tests used:
GCN2 kinase = GCN2 kinase (Homo sapiens, UniProt Q9P2K8); experiment: GCN2 enzyme inhibition assay (Transcreener ADP2 fluorescence polarization); assay type: biochemical; details: compounds of Formula II; 280 μM ATP, 4 nM GCN2 kinase
Outline: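 ADP formation read by Transcreener FP after a 1 h, 25 °C kinase reaction containing 280 μM ATP, 200 μM (RS)7 substrate and 4 nM GCN2, pH 7.5 Tris buffer. Compounds (0–8 μM final) were added 10 min before ATP. Percent inhibition gave IC50 and apparent Ki via tight-binding fit.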

[1] = target: intracellular GCN2 (phosphorylation of the GCN2 substrate eIF2α) (Homo sapiens, UniProt Q9P2K8); experiment: GCN2 cellular inhibition assay (AlphaScreen SureFire P-eIF2α Ser51, borrelidin-treated U2OS cells); assay type: cell-based; details: compounds of Formula II; biomarker assay, phosphorylated eIF2α Ser51 in borrelidin-treated U2OS cells
Outline: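 Borrelidin at 10 μM is added to U2OS cells immediately after compound (4-fold dilution series, 40 μM top final) for 1 h at 37 °C. Phosphorylated eIF2α Ser51 in lysates is quantified by AlphaScreen and expressed as percent inhibition against borrelidin-stimulated controls.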

intracellular GCN2 (phosphorylation of the GCN2 substrate eIF2α), sequence (Q9P2K8 whole entry): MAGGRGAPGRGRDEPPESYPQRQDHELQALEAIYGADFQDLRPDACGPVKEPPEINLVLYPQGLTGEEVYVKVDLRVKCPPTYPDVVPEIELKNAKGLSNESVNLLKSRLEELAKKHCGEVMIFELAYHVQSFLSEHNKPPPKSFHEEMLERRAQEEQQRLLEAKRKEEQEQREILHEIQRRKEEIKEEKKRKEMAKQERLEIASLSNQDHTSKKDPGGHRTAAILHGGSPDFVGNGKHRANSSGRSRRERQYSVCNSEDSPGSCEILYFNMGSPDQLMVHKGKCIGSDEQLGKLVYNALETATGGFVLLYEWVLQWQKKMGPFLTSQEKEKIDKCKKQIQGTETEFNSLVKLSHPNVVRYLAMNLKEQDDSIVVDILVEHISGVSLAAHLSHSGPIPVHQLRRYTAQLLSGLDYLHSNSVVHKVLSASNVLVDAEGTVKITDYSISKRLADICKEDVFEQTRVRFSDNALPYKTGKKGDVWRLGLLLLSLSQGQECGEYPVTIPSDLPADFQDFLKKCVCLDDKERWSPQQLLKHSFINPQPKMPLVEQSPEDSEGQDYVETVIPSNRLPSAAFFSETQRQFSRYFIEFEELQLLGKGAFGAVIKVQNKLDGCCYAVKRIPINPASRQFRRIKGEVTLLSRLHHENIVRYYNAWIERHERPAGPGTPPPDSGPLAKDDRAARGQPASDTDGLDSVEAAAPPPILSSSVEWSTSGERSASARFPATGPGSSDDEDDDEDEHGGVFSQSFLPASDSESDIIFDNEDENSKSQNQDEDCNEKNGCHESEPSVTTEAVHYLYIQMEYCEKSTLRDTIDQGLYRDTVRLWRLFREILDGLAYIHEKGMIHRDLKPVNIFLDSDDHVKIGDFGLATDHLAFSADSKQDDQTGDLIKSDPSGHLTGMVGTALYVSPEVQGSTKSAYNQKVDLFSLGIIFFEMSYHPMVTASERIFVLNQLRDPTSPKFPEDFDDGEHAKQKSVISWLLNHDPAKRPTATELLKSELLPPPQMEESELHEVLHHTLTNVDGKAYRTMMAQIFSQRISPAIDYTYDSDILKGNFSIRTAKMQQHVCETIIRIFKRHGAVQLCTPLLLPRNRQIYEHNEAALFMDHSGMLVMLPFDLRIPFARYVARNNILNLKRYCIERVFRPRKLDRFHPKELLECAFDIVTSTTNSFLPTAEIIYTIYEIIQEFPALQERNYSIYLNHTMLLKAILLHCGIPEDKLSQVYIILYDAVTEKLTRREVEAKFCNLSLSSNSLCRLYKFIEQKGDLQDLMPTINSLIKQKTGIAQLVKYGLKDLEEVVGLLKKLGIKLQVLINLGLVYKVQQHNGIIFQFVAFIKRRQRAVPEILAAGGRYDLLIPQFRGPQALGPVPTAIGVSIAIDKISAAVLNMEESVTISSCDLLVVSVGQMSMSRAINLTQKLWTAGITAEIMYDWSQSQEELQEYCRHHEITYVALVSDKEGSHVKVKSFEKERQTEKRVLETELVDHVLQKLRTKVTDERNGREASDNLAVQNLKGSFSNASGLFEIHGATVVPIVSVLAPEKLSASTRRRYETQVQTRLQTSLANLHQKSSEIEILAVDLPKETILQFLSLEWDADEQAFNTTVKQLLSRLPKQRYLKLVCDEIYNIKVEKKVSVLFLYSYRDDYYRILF
GCN2 kinase, sequence (Q9P2K8 whole entry): as above

Structure (SMILES) | Ki (GCN2 kinase) [nM] | IC50 [1] [nM]
CN1CCN(c2cc(-c3cnc4ccc(C(F)F)nn34)ncn2)CC12CN(S(C)(=O)=O)C2 [II-452, 8-(6-(6-(Difluoromethyl)imidazo[1,2-b]pyridazin-3-yl)pyrimidin-4-yl)-5-methyl-2-(methylsulfonyl)-2,5,8-triazaspiro[3.5]nonane] | 10 to 1000 | 500 to 5000
CN1CCN(c2cc(-c3cnc4ccc(C(F)F)nn34)ncn2)CC1C(N)=O (centres unmarked) [II-453, 4-(6-(6-(Difluoromethyl)imidazo[1,2-b]pyridazin-3-yl)pyrimidin-4-yl)-1-methylpiperazine-2-carboxamide] | 10 to 1000 | > 5000
OC1([C@@H]2CN(c3cc(-c4cnc5ccc(C(F)F)nn45)ncn3)CCN2)CC1 [II-454, (S)-1-(4-(6-(6-(Difluoromethyl)imidazo[1,2-b]pyridazin-3-yl)pyrimidin-4-yl)piperazin-2-yl)cyclopropan-1-ol] | 10 to 1000 | > 5000
CN(C1CCCN(c2cc(-c3cnc4ccc(C(F)F)nn34)ncn2)C1)S(C)(=O)=O (centres unmarked) [II-455, N-(1-(6-(6-(Difluoromethyl)imidazo[1,2-b]pyridazin-3-yl)pyrimidin-4-yl)piperidin-3-yl)-N-methylmethanesulfonamide] | 10 to 1000 | 500 to 5000
CN(C)CC(=O)N(CC1CCCN(c2cc(-c3cnc4ccc(C(F)F)nn34)ncn2)C1)S(C)(=O)=O (centres unmarked) [II-456, N-((1-(6-(6-(Difluoromethyl)imidazo[1,2-b]pyridazin-3-yl)pyrimidin-4-yl)piperidin-3-yl)methyl)-2-(dimethylamino)-N-(methylsulfonyl)acetamide] | 10 to 1000 | < 500
CC1(C)COC(CNS(C)(=O)=O)CN1c1cc(-c2cnc3ccc(C(F)F)nn23)ncn1 (centres unmarked) [II-457, N-((4-(6-(6-(Difluoromethyl)imidazo[1,2-b]pyridazin-3-yl)pyrimidin-4-yl)-5,5-dimethylmorpholin-2-yl)methyl)methanesulfonamide] | 10 to 1000 | 500 to 5000
CN1CCN(c2cc(-c3cnc4ccc(C(F)F)nn34)ncn2)C[C@H]1C1(O)CC1 [II-459, (S)-1-(4-(6-(6-(Difluoromethyl)imidazo[1,2-b]pyridazin-3-yl)pyrimidin-4-yl)-1-methylpiperazin-2-yl)cyclopropan-1-ol] | > 1000 | > 5000
CS(=O)(=O)NC(=O)C1CCCN(c2cc(-c3cnc4ccc(C(F)F)nn34)ncn2)C1 (centres unmarked) [II-460, 1-(6-(6-(Difluoromethyl)imidazo[1,2-b]pyridazin-3-yl)pyrimidin-4-yl)-N-(methylsulfonyl)piperidine-3-carboxamide] | 10 to 1000 | > 5000
CC1C(CNS(C)(=O)=O)C(F)(F)C(C)CN1c1cc(-c2cnc3ccc(C(F)F)nn23)ncn1 (centres unmarked) [II-461, N-((1-(6-(6-(Difluoromethyl)imidazo[1,2-b]pyridazin-3-yl)pyrimidin-4-yl)-4,4-difluoro-2,5-dimethylpiperidin-3-yl)methyl)methanesulfonamide] | < 10 | 500 to 5000
CC1C(CNS(C)(=O)=O)C(F)(F)C(C)CN1c1cc(-c2cnc3ccc(C(F)F)nn23)ncn1 (centres unmarked) [II-462, N-((1-(6-(6-(Difluoromethyl)imidazo[1,2-b]pyridazin-3-yl)pyrimidin-4-yl)-4,4-difluoro-2,5-dimethylpiperidin-3-yl)methyl)methanesulfonamide] | < 10 | < 500
CC1C(CNS(C)(=O)=O)N(C2CC2)CCN1c1cc(-c2cnc3ccc(C(F)F)nn23)ncn1 (centres unmarked) [II-463, N-((1-Cyclopropyl-4-(6-(6-(difluoromethyl)imidazo[1,2-b]pyridazin-3-yl)pyrimidin-4-yl)-3-methylpiperazin-2-yl)methyl)methanesulfonamide] | < 10 | < 500
CC(NS(C)(=O)=O)C1CN(c2cc(-c3cnc4ccc(C(F)F)nn34)ncn2)CCN1 (centres unmarked) [II-465, N-(1-(4-(6-(6-(Difluoromethyl)imidazo[1,2-b]pyridazin-3-yl)pyrimidin-4-yl)piperazin-2-yl)ethyl)methanesulfonamide] | 10 to 1000 | 500 to 5000
CC1C(CNS(C)(=O)=O)NCCN1c1cc(-c2cnc3ccc(C(F)(F)F)nn23)ncn1 (centres unmarked) [II-466, N-((3-Methyl-4-(6-(6-(trifluoromethyl)imidazo[1,2-b]pyridazin-3-yl)pyrimidin-4-yl)piperazin-2-yl)methyl)methanesulfonamide] | < 10 | < 500
CC(NS(C)(=O)=O)C1CN(c2cc(-c3cnc4ccc(C(F)F)nn34)ncn2)CCN1C (centres unmarked) [II-473, N-(1-(4-(6-(6-(Difluoromethyl)imidazo[1,2-b]pyridazin-3-yl)pyrimidin-4-yl)-1-methylpiperazin-2-yl)ethyl)methanesulfonamide] | 10 to 1000 | > 5000
CC(NS(C)(=O)=O)C1CN(c2cc(-c3cnc4ccc(C(F)F)nn34)ncn2)CCN1C (centres unmarked) [II-474, N-(1-(4-(6-(6-(Difluoromethyl)imidazo[1,2-b]pyridazin-3-yl)pyrimidin-4-yl)-1-methylpiperazin-2-yl)ethyl)methanesulfonamide] | 10 to 1000 | 500 to 5000
CC1C(CNS(C)(=O)=O)C(F)(F)C(C)CN1c1cc(-c2cnc3ccc(C(F)F)nn23)ncn1 (centres unmarked) [II-475, N-((1-(6-(6-(Difluoromethyl)imidazo[1,2-b]pyridazin-3-yl)pyrimidin-4-yl)-4,4-difluoro-2,5-dimethylpiperidin-3-yl)methyl)methanesulfonamide] | 10 to 1000 | < 500
CC1C(CNS(C)(=O)=O)C(F)(F)C(C)CN1c1cc(-c2cnc3ccc(C(F)F)nn23)ncn1 (centres unmarked) [II-476, N-((1-(6-(6-(Difluoromethyl)imidazo[1,2-b]pyridazin-3-yl)pyrimidin-4-yl)-4,4-difluoro-2,5-dimethylpiperidin-3-yl)methyl)methanesulfonamide] | 10 to 1000 | 500 to 5000
CC1C(C(N)=O)NCCN1c1cc(-c2cnc3ccc(C(F)F)nn23)ncn1 (centres unmarked) [II-477, 4-(6-(6-(Difluoromethyl)imidazo[1,2-b]pyridazin-3-yl)pyrimidin-4-yl)-3-methylpiperazine-2-carboxamide] | 10 to 1000 | 500 to 5000
CNS(=O)(=O)C1CCCN(c2cc(-c3cnc4ccc(C(F)F)nn34)ncn2)C1 (centres unmarked) [II-480, 1-(6-(6-(Difluoromethyl)imidazo[1,2-b]pyridazin-3-yl)pyrimidin-4-yl)-N-methylpiperidine-3-sulfonamide] | 10 to 1000 | > 5000
CS(=O)(=O)NCC1COCCN(c2cc(-c3cnc4ccc(C(F)F)nn34)ncn2)C1 (centres unmarked) [II-481, N-((4-(6-(6-(Difluoromethyl)imidazo[1,2-b]pyridazin-3-yl)pyrimidin-4-yl)-1,4-oxazepan-6-yl)methyl)methanesulfonamide] | 10 to 1000 | 500 to 5000
CCN1CCN(c2cc(-c3cnc4ccc(C(F)F)nn34)ncn2)C(C)C1CNS(C)(=O)=O (centres unmarked) [II-482, N-((4-(6-(6-(difluoromethyl)imidazo[12-b]pyridazin-3-yl)pyrimidin-4-yl)-1-ethyl-3-methylpiperazin-2-yl)methyl)methanesulfonamide] | < 10 | < 500
NC(=O)CC1CN(c2cc(-c3cnc4ccc(C(F)F)nn34)ncn2)CCN1 (centres unmarked) [II-483, 2-(4-(6-(6-(Difluoromethyl)imidazo[1,2-b]pyridazin-3-yl)pyrimidin-4-yl)piperazin-2-yl)acetamide] | 10 to 1000 | > 5000
C[C@H]1[C@@H](C[S@@](C)(=N)=O)CCCN1c1cc(-c2cnc3ccc(C(F)F)nn23)ncn1 [II-485, (S)-(((2S,3S)-1-(6-(6-(Difluoromethyl)imidazo[1,2-b]pyridazin-3-yl)pyrimidin-4-yl)-2-methylpiperidin-3-yl)methyl)(imino)(methyl)-λ^6-sulfanone] | < 10 | < 500
CC1C(CS(C)(=N)=O)CCCN1c1cc(-c2cnc3ccc(C(F)F)nn23)ncn1 (centres unmarked) [II-486, ((1-(6-(6-(Difluoromethyl)imidazo[1,2-b]pyridazin-3-yl)pyrimidin-4-yl)-2-methylpiperidin-3-yl)methyl)(imino)(methyl)-λ^6-sulfanone] | 10 to 1000 | 500 to 5000
CC1C(CS(C)(=N)=O)CCCN1c1cc(-c2cnc3ccc(C(F)F)nn23)ncn1 (centres unmarked) [II-487, ((1-(6-(6-(Difluoromethyl)imidazo[1,2-b]pyridazin-3-yl)pyrimidin-4-yl)-2-methylpiperidin-3-yl)methyl)(imino)(methyl)-λ^6-sulfanone] | 10 to 1000 | < 500
CC1C(CS(C)(=N)=O)CCCN1c1cc(-c2cnc3ccc(C(F)F)nn23)ncn1 (centres unmarked) [II-488, ((1-(6-(6-(Difluoromethyl)imidazo[1,2-b]pyridazin-3-yl)pyrimidin-4-yl)-2-methylpiperidin-3-yl)methyl)(imino)(methyl)-λ^6-sulfanone] | 10 to 1000 | > 5000
CC1CN(c2cc(-c3cnc4ccc(C(F)F)nn34)ncn2)C(C)C(CNS(C)(=O)=O)=C1F (centres unmarked) [II-491, N-((1-(6-(6-(Difluoromethyl)imidazo[1,2-b]pyridazin-3-yl)pyrimidin-4-yl)-4-fluoro-2,5-dimethyl-1,2,5,6-tetrahydropyridin-3-yl)methyl)methanesulfonamide] | < 10 | < 500
CN1CCN(c2cc(-c3cnc4ccc(C(F)F)nn34)ncn2)CC1CC(N)=O (centres unmarked) [II-492, 2-(4-(6-(6-(Difluoromethyl)imidazo[1,2-b]pyridazin-3-yl)pyrimidin-4-yl)-1-methylpiperazin-2-yl)acetamide] | 10 to 1000 | 500 to 5000
